Each block holds one molecule with its values, some of them ahead of it. Active and inactive are the calls of the source.
Experiments:
[1] = biological target: T1, Rac GTPase-activating protein 1 (Homo sapiens, UniProt Q9H0H5); assay: MgcRacGAP GTPase-activating activity inhibitors, confirmation, biochemical, ADP Hunter fluorescence, primary and confirmatory (AID 624330); assay type: functional
T1 sequence (Q9H0H5 whole entry): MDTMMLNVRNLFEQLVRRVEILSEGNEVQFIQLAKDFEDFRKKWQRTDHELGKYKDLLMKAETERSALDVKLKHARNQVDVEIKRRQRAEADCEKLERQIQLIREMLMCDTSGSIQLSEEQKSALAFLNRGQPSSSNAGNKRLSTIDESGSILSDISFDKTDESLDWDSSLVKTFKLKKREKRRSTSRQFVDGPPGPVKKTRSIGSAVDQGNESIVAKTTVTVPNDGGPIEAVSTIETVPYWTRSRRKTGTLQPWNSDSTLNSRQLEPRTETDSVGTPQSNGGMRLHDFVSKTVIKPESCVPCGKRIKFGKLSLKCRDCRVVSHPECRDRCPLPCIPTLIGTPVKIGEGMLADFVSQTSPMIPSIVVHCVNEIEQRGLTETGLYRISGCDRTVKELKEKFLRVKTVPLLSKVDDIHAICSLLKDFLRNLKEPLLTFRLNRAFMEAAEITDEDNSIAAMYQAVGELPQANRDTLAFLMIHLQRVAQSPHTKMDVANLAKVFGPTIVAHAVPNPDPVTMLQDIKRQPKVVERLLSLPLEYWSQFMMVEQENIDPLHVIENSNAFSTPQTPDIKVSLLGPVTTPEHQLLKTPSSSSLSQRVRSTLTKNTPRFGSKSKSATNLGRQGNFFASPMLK

[2] = biological target: NAD-dependent protein deacylase sirtuin-5, mitochondrial (Homo sapiens, UniProt Q9NXA8); assay: SIRT5 desuccinylase inhibitors, dose response, biochemical, fluorescence imaging, cherry-pick, set 5 (AID 720591);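 further: desuccinylation of succinyl peptide AMC substrate read as fluorescence after trypsin release; potency of inhibitors that lower fluorescence and may act on trypsin instead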
NAD-dependent protein deacylase sirtuin-5, mitochondrial, sequence (Q9NXA8 whole entry): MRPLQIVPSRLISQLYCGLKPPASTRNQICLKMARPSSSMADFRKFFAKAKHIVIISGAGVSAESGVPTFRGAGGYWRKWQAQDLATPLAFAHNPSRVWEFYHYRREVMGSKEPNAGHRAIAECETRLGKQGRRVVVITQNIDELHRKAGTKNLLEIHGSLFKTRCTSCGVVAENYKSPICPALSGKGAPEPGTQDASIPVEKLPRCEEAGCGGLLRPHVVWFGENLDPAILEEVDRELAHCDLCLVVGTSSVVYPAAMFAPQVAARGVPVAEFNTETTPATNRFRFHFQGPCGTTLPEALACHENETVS

[3] = tested on: HEK293; assay: inhibitors of LMP1-driven NF-kB reporter, dose response, cell-based, HEK293, luciferase, cherry-pick (AID 588343); assay type: functional; settings: Homo sapiens
[4] = biological target: T2, Corticotropin-releasing factor receptor 2/Corticotropin-releasing factor-binding protein (Homo sapiens, UniProt P24387+Q13324); assay: Dose Response confirmation of uHTS hits for small molecule antagonists of the CRF-binding protein and CRF-R2 receptor complex.; assay type: functional; settings: read-out: IC50_Mean
T2 sequence (Q13324 whole entry): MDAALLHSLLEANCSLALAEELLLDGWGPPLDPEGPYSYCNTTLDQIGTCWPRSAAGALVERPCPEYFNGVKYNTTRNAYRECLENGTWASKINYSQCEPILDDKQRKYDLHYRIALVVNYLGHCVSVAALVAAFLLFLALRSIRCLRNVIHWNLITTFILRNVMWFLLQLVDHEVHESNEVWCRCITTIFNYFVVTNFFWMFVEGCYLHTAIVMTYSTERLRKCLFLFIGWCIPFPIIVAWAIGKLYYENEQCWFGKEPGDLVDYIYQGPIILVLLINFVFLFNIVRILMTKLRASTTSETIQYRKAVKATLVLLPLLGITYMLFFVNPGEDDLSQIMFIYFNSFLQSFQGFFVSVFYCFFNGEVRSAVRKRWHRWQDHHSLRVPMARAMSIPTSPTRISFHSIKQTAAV
T2 sequence (P24387 whole entry): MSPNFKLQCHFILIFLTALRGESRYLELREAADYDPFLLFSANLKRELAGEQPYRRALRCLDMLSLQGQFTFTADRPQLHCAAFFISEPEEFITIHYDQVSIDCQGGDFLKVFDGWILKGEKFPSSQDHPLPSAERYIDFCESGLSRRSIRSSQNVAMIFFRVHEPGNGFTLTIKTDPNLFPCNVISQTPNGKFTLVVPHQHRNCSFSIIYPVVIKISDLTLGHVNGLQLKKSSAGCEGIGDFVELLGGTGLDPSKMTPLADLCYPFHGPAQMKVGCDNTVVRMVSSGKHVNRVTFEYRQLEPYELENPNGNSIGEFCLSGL

[5] = biological target: T2, Corticotropin-releasing factor receptor 2/Corticotropin-releasing factor-binding protein; assay: activators of CRF receptor 2 with binding protein – uHTS hits, confirmation (AID 602473); assay type: functional; settings: read-out: EC50_Mean
[6] = CRF-BP/CRF-R2 complex antagonists, dose response, cell-based, uHTS hits, 384-well (AID 651639); assay type: functional, Homo sapiens; settings: read-out: IC50_Mean
[7] = biological target: T3, Cytochrome P450 1A2 (Homo sapiens, UniProt P05177);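 further: PubChem cytochrome P450 panel assay, CYP1A2 panel member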
T3 sequence (P05177 whole entry): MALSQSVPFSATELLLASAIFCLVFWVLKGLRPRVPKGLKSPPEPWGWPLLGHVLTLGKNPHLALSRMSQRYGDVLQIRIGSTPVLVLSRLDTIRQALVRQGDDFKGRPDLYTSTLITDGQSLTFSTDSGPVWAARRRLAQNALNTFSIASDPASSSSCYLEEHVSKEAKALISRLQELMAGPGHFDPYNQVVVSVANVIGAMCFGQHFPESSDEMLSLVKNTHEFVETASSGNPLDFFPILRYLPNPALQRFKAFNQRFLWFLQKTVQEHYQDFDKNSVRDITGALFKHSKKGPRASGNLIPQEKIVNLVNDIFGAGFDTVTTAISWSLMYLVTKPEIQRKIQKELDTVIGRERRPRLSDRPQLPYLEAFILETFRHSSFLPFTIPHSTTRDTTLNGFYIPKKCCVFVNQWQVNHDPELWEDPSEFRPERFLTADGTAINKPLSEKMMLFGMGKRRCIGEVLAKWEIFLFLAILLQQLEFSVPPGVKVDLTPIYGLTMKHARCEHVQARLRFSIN

[8] = biological target: Cytochrome P450 2C9 (Homo sapiens, UniProt P11712)
Cytochrome P450 2C9, sequence (P11712 whole entry, the tested form may be a part): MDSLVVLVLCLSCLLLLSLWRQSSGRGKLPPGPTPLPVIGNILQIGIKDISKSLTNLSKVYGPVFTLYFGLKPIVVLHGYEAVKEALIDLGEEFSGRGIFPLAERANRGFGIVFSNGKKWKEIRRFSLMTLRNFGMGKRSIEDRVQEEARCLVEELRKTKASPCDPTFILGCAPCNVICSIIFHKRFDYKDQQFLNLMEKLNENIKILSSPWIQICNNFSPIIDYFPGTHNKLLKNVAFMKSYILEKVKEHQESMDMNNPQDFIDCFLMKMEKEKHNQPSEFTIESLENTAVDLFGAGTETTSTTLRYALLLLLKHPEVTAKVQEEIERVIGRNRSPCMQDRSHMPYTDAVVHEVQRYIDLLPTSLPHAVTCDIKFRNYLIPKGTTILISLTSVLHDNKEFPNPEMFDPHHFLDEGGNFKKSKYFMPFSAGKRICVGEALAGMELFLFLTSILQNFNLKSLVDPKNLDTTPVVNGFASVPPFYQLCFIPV

[9] = inhibitors of HIV Env-driven cell fusion, dose response, cherry-pick (AID 652057); assay type: functional, cell-based
[10] = CEM21 lymphoblast cell cytotoxicity, dose response, cytotoxicity control for viral fusion inhibitor project, CellTiter-Glo luminescence, cherry-picked (AID 652042); assay type: functional, cell-based;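 further: potency for signal decrease meaning cytotoxicity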
[11] = ZM109 Env clade C HIV-1 fusion inhibitors, dose response, HeLa effector, CEM target cells, luciferase, cherry-pick (AID 652058); assay type: functional, cell-based
[12] = off-target signal loss in HeLa-CEM21 co-culture – HeLa F-luc CTL cells, cherry-picked, counter-screen for HIV-1 Env fusion inhibitor project, dose response (AID 652040); assay type: functional, cell-based;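 further: potency for signal decrease marking cytotoxic or nonspecific inhibition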
[13] = inhibitors of clade B AD8 Env fusion, dose response, cell-based, cherry-pick (AID 652062); assay type: functional;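 further: luciferase signal from cell-cell fusion driven by HIV-1 clade B AD8 Env; potency is for inhibitors of fusion seen as a drop in luminescence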
[14] = tested on: Vero; assay: Vero cell cytotoxicity, cytotoxicity control for flavivirus capping enzyme inhibitors (AID 588742); assay type: functional; settings: Chlorocebus sabaeus

Structure (SMILES): Cc1ccc(OCC(=O)NNC(=S)NC(=O)C2CCCCC2)c(C)c1
- AC50 [3]: 39.5 µM (active)

Structure (SMILES): O=C1c2ccccc2C(=O)c2cc(N3CCCCC3)ccc21
- AC50 [3]: 1.3 µM (active)

Structure (SMILES): COc1ccc(S(=O)(=O)N2CCN(C(S)=NCC3CCCO3)CC2)cc1OC (configuration not stated)
- AC50 [3]: 268 µM (active)

Structure (SMILES): COc1cc(OC)nc(Nc2nc(C(N)COCc3ccccc3)cs2)n1 (configuration not stated)
- AC50 [9]: 3.75 µM (active)
- AC50 [10]: 28.3 µM (active)
- AC50 [11]: 4.17 µM (active)
- AC50 [12]: 4.69 µM (active)
- AC50 [13]: 5.29 µM (active)

Structure (SMILES): Cc1ccc(-c2ccc3c(c2)O[C@H](CN(C)Cc2cccnc2)[C@@H](C)CN([C@H](C)CO)S3(=O)=O)cc1
- AC50 [9]: 27 µM (active)
- AC50 [10]: 13.7 µM (active)
- AC50 [13]: 23.8 µM (active)

Structure (SMILES): C/C(=N\NC(=O)CNc1cccc2ccccc12)c1ccc(Br)s1
- CC50 [14]: > 40 µM (active)

Other lines, results leading:

- IC50 [1]: 70.5 µM (active)
- AC50 [2]: > 30 µM (inactive)
Structure (SMILES): C=CCc1cc(OC)ccc1OCCN1CC(C)OC(C)C1 (configuration not stated)

- IC50 [4]: 5.69 µM (active)
- EC50 [5]: > 53 µM (inactive)
- IC50 [6]: > 20 µM (inactive)
Structure (SMILES): Cc1ccc(NC(=O)CSc2nnc(Cn3cnc4ccccc43)o2)c(C)c1

- AC50 [7]: 2.51 µM (inconclusive)
- AC50 [8]: inconclusive
Structure (SMILES): CCCCN(C)C(=O)c1coc(=O)c2ccccc12

- AC50 [8]: inconclusive
Structure (SMILES): CN(C)C(=O)c1ccc(-n2nc(C(F)(F)F)c3c2CCCC3)cc1

- AC50 [2]: > 30 µM (inactive)
Structure (SMILES): COc1ccccc1CNC(=O)C1CCC(CNS(=O)(=O)c2ccc(F)cc2)CC1 (configuration not stated)

- AC50 [2]: > 30 µM (inactive)
Structure (SMILES): O=C(c1[nH]c(C(F)(F)F)nc1-c1ccccc1)N1CCCN(Cc2ccc(F)cc2)CC1

Reference: ChEMBL document CHEMBL1201862, “PubChem BioAssay data set” (2004)
